Assay: Biodistribution / PET pharmacokinetics of [124I]-zelavespib in MDA-MB-468 tumor-bearing mice (data of ref 32, refitted to exponential decay)
Type: in vivo, mouse
Protocol: Iodine-124 is a ‘non-residualizing’ isotope (i.e., free iodine-124 washes out from cells), and therefore, data derived from positron emission tomography imaging of MDA-MB-468-bearing mice that were administered a tracer amount of [^124I]-PU-AD can be used to determine real-time zelavespib concentrations delivered to tumors. Because positron emission tomography provides information on radioactivity and not molar concentrations, radioactivity data from Pillarsetty et al. were transformed into tumor concentrations to calculate the time-dependent zelavespib concentrations in tumors for an administered dose of 50 mg/kg. The drug concentration (in μM) in the tumor water space, [Drugtumor], at the time t post-administration is therefore: [Drugtumor]t=Drugdose·[Atumor]t/100%·1/W·1×10^6/MW µM where Drugdose is the administered drug dose (in mg), [Atumor]t is the activity concentration (in % injected dose per milliliter, %ID/mL) of the surrogate radiotracer, W is the water space of the tissue (in mL/g), MW is the molecular weight of the drug (i.e., zelavespib), and the factor 1 × 10^6 converts the concentration to μM. For the drug zelavespib and the surrogate radiotracer […] co-injected in a ratio of ~1 to 10,000, the drug itself is essentially the only significant form of the drug–surrogate combination in the tumor. Thus, for a co-administered dose of zelavespib (zelavespibdose in mg) and a tracer amount of [^124I]-PU-AD, the drug concentration in the tumor water space (using an average water space, W = 0.8 mL/g, and the molecular weight MW = 512) is: [Zelavespibtumor]t=Zelavespibdose · [Atumor]t/100%·2.44×10^3 µM
To study the zelavespib–epichaperome interaction in vivo, we selected, for simplicity, an epichaperome-positive tumor model (e.g., subcutaneously xenografted MDA-MB-468 tumors in mice). Using whole-body PET imaging after the injection of ^124I-labeled zelavespib, Pillarsetty et al. reported drug presence in MDA-MB-468 tumors up to 120 h post-single dose administration (~T1/2 = 60 h). Conversely, zelavespib was no longer observed in non-disease, non-metabolizing tissues after ~8 h, clearing rapidly from plasma, paralleled by a similar rapid clearance from normal tissues (i.e., chaperone-positive but epichaperome-negative). In these tumors, a clear relationship between tumor retention, pharmacodynamic effects, and anti-tumor activity was observed, supporting the notion that zelavespib was in residence with its target over the time it resided in these tumors.
These values are very much in agreement with those reported for zelavespib in human patients. […] Contrasting plasma and normal tissues and organs, the distribution of zelavespib in tumors was best fitted using a bi-exponential model. […] The first phase thus reflects the clearance of systemic agent, while the second is attributable to specific tumor retention.
Figure 1 Biodistribution of zelavespib in MDA-MB-468 tumor-bearing mice. (a) Biodistribution of [^124I]-Zelavespib in MDA-MB-468 tumors, organs, tissues, and plasma as per ref. [32]. Data are presented as means ± s.d., five mice per time point. Curves for blood, lung, heart, muscle, bone, and brain were fitted using a one-phase decay equation, and kinetics of zelavespib clearance were determined. Tumor curve was fitted to a two-phase exponential decay. k, kfast, and kslow are the rate constants. Half-life (T1/2) is computed as ln(2)/k. […] (b) Illustrative schematic showing the distinct binding kinetics of zelavespib to epichaperomes (slow off-rate) and to chaperone assemblies (fast off-rate). The tumor pharmacokinetics profile recorded in the Phase 2 interval may represent a direct reflection of the in vivo kinetics of target–drug unbinding. koff, kinetic rate constant for dissociation of an epichaperome-zelavespib assembly. Rt, retention time. […]

[1] = MDA-MB-468 tumor-bearing mice, one-phase exponential decay fit of data of ref 32
[2] = MDA-MB-468 tumor, bi-exponential fit, Phase 1: 0 to 8 h, data of ref 32
[3] = MDA-MB-468 tumor, bi-exponential fit, slow terminal clearance phase, data of ref 32

half-life (T1/2), bone [1]: 2.84 h | half-life (T1/2), brain [1]: 2.65 h | half-life (T1/2), heart [1]: 3.10 h | half-life (T1/2), lung [1]: 3.37 h | half-life (T1/2), muscle [1]: 5.03 h | half-life (T1/2), plasma/blood [1]: 4.38 h | tumor Phase 1 T1/2 [2]: 2.87 h | tumor Phase 1 rate constant k (kfast) [2]: 0.241 h⁻¹ | tumor Phase 2 T1/2 [3]: 46.8 h | tumor Phase 2 rate constant k (kslow) [3]: 0.015 h⁻¹
Structure (SMILES): CC(C)NCCCn1c(Sc2cc3c(cc2I)OCO3)nc2c(N)ncnc21 [zelavespib]

From paper PMC10604720, “Unraveling the Mechanism of Epichaperome Modulation by Zelavespib: Biochemical Insights on Target Occupancy and Extended Residence Time at the Site of Action” (Biomedicines, 2023)
